From patent US6593331B2, “Method for treatment of pain” (Laboratories UPSA, priority 2001, dated 2003)

Key:
albino rats = test: rat hindpaw thermal escape paradigm (hindpaw withdrawal test for analgesia, acute pain); type: in vivo; conditions: for analgesic effect of co-administration with acetaminophen compared to either compound given alone: hydroxyazapirone 5 mg/kg + acetaminophen 300 mg/kg, ip; for hindpaw thermal escape response/latency compared to vehicle (saline+PETW): n=5-8 rats per group
Description: To assess the thermally evoked paw-withdrawal response, a commercially available device was used. Specifics of device construction and operation have been published previously (Dirig D M, Salami A, Rathbun M L, Ozaki G T, Yaksh T L. Characterization of variables defining hindpaw withdrawal latency evoked by radiant thermal stimuli. J Neurosci Methods. Oct. 3, 1997; 76(2):183-91). This device is comprised of a glass surface on which the rats were placed individually in Plexiglas cubicles (9×22×25 cm). The surface is maintained at 30° C. by a feedback-controlled, under-glass, forced-air heating system. The thermal nociceptive stimulus originates from a projection bulb below the glass that can be manipulated in a two-dimensional axis on ball bearing slides. This apparatus allows the stimulus to be delivered separately to each hind paw with the aid of an angled mirror mounted on the stimulus source. A timer is actuated with the light source, and escape latency is defined as the time between stimulus onset and the display of a brisk paw withdrawal (detected by photodiode motion sensors that stops the timer and terminates the stimulus; cut-off time for a non-response is 20 sec which triggers automatic termination of the stimulus). In the present study, animals are placed in test boxes for 30 min acclimation and then baseline escape latency is assessed separately for each hindpaw (left and right) at −15 min. All drugs are delivered at 0 min by the intraperitoneal (i.p.) route in a volume of 3 ml/kg. The vehicle for 6-hydroxybuspirone was 0.9% sodium chloride (Saline). For 3-hydroxygepirone the vehicle was deionized H2O plus a few drops of hydrochloric acid. For acetaminophen (Sigma, A7085) the vehicle was 40% polyethylene glycol 400 (PEG-400), 10% EtOH, 15% Tween 80, and 35% deionized H2O (PETW). Acetaminophen was disolved sequentially in two parts: 1) first into a solution of 80% PEG 400+20% EtOH, and 2) then slowly added to it was an equal volume of 30% Tween 80+70% deionized H2O (sonicated as needed). Each animal received two injections at time zero. Specifically, animals were tested in one of the following 6 treatment conditions (abbreviations used in figures are shown under “Key” below):
Following drug administration, thermal escape latencies are measured at 15, 30, 60, 90 and 120 min (mean of both paws is used for statistical analysis).

mouse = mouse hot plate test (procedure of Eddy, et al.); type: in vivo; conditions: 6-hydroxybuspirone to acetaminophen weight ratios of 1:3, 1:10 and 1:30
[1] = hydroxyazapirone alone, 5 mg/kg ip
[2] = acetaminophen alone, 300 mg/kg ip

| SMILES | time of peak analgesic effect post injection (albino rats; 3-hydroxygepirone alone, 5 mg/kg ip) | analgesic effect of co-administration with acetaminophen compared to either compound given alone (albino rats) | hindpaw thermal escape response/latency compared to vehicle (saline+PETW) (albino rats; [1]) | potentiation of acetaminophen in hot plate test (mouse) | time of peak analgesic effect post injection (albino rats; [2]) | hindpaw thermal escape response/latency compared to vehicle (saline+PETW) (albino rats; [2]) |
| --- | --- | --- | --- | --- | --- | --- |
| CC1(C)CC(=O)N(CCCCN2CCN(c3ncccn3)CC2)C(=O)C1O (centres unmarked) [3-hydroxygepirone, 4,4-Dimethyl-3-hydroxy-1-[4-[4-(2-pyrimidinyl)-1-piperazinyl]butyl]-2,6-piperidinedione] | 120 min | analgesic enhancing effect | elevated significantly above vehicle |  |  |  |
| O=C1CC2(CCCC2)C(O)C(=O)N1CCCCN1CCN(c2ncccn2)CC1 (centres unmarked) [6-hydroxybuspirone, 6-Hydroxy-8-[4-[4-(2-pyrimidinyl)-piperazinyl]-butyl]-8-azaspiro[4.5]-7,9-dione] |  | analgesic enhancing effect | elevated significantly above vehicle | potentiation of acetaminophen |  |  |
| CC(=O)Nc1ccc(O)cc1 [acetaminophen, reference compound] |  |  |  |  | 120 min | elevated significantly above vehicle |
